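Interpolation was linear, between the two tested concentrations surrounding the appropriate level; five concentrations were tested over 48 hours in 96-well plates. Abbreviation: GI50, concentration required for 50% inhibition of growth.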 The source made the active and inactive calls. Rule as the data show it: active = GI50 up to about 1.1 µM and inactive = higher.
Tests used:
Experiment in all cases: NCI anticancer screen, dose series, 48 h
786-0 = test system: 786-0
A498 = test system: A498
A549 = test system: A549
ACHN = test system: ACHN
BT-549 = test system: BT-549
CAKI-1 = test system: CAKI-1
CCRF-CEM = test system: CCRF-CEM
COLO 205 = test system: COLO 205
EKVX = test system: EKVX
HCC 2998 = test system: HCC 2998
HCT-116 = test system: HCT-116
HCT-15 = test system: HCT-15
HL-60 = test system: HL-60
HOP-92 = test system: HOP-92
HT-29 = test system: HT-29
Hs-578T = test system: Hs-578T
IGROV-1 = test system: IGROV-1
K562 = test system: K562
KM12 = test system: KM12
LOX IMVI = test system: LOX IMVI
M14 = test system: M14
MCF7 = test system: MCF7
MDA-MB-231 = test system: MDA-MB-231
MDA-MB-435 = test system: MDA-MB-435
MDA-N = test system: MDA-N
MOLT-4 = test system: MOLT-4
Malme-3M = test system: Malme-3M
NCI-H226 = test system: NCI-H226
NCI-H23 = test system: NCI-H23
NCI-H460 = test system: NCI-H460
NCI-H522 = test system: NCI-H522
NCI/ADR-RES = test system: NCI/ADR-RES
OVCAR-4 = test system: OVCAR-4
OVCAR-5 = test system: OVCAR-5
OVCAR-8 = test system: OVCAR-8
PC-3 = test system: PC-3
RPMI-8226 = test system: RPMI-8226
RXF 393 = test system: RXF 393
SF-268 = test system: SF-268
SK-MEL-28 = test system: SK-MEL-28
SK-MEL-2 = test system: SK-MEL-2
SK-MEL-5 = test system: SK-MEL-5
SN12C = test system: SN12C
SNB-19 = test system: SNB-19
SNB-75 = test system: SNB-75
SR = test system: SR
SW-620 = test system: SW-620
T47D = test system: T47D
TK-10 = test system: TK-10
U-251 = test system: U-251
UACC-257 = test system: UACC-257
UACC-62 = test system: UACC-62
UO-31 = test system: UO-31
DU-145 = test system: DU-145
HOP-62 = test system: HOP-62
SF-295 = test system: SF-295
SF-539 = test system: SF-539
SK-OV-3 = test system: SK-OV-3

With `C/C(=N\N=C(N)N)c1c(C(=O)OCCCCCCOC(=O)c2nc3sccn3c2/C(C)=N/N=C(N)N)nc2sccn12` the GI50 (786-0) was 41.9 µM (inactive), the GI50 (A498) was > 100 µM (inactive) and the GI50 (A549) was > 100 µM (inactive). For the same compound, the GI50 (ACHN) was > 100 µM (inactive), the GI50 (BT-549) was > 100 µM (inactive) and the GI50 (CAKI-1) was > 100 µM (inactive). For the same compound, the GI50 (CCRF-CEM) was 20.5 µM (inactive), the GI50 (COLO 205) was > 100 µM (inactive) and the GI50 (EKVX) was > 100 µM (inactive). For the same compound, the GI50 (HCC 2998) was > 100 µM (inactive), the GI50 (HCT-116) was > 100 µM (inactive) and the GI50 (HCT-15) was over 100 µM. For the same compound, the GI50 (HL-60) was 32.1 µM (inactive), the GI50 (HOP-92) was > 100 µM (inactive) and the GI50 (HT-29) was > 100 µM (inactive). The GI50 (Hs-578T) was > 100 µM (inactive), the GI50 (IGROV-1) was > 100 µM (inactive) and the GI50 (K562) was 19.5 µM (inactive). For the same compound, the GI50 (KM12) was > 100 µM (inactive), the GI50 (LOX IMVI) was 98.2 µM (inactive) and the GI50 (M14) was > 100 µM (inactive). For the same compound, the GI50 (MCF7) was 47.4 µM (inactive), the GI50 (MDA-MB-231) was > 100 µM (inactive) and the GI50 (MDA-MB-435) was > 100 µM (inactive). For the same compound, the GI50 (MDA-N) was > 100 µM (inactive), the GI50 (MOLT-4) was 32.2 µM (inactive) and the GI50 (Malme-3M) was 43.4 µM (inactive). For the same compound, the GI50 (NCI-H226) was > 100 µM (inactive), the GI50 (NCI-H23) was 46.1 µM (inactive) and the GI50 (NCI-H460) was > 100 µM (inactive). The GI50 (NCI-H522) was > 100 µM (inactive), the GI50 (NCI/ADR-RES) was > 100 µM (inactive) and the GI50 (OVCAR-4) was > 100 µM (inactive). The GI50 (OVCAR-5) was > 100 µM (inactive), the GI50 (OVCAR-8) was 42.9 µM (inactive) and the GI50 (PC-3) was > 100 µM (inactive). The GI50 (RPMI-8226) was 85.3 µM (inactive), the GI50 (RXF 393) was > 100 µM (inactive) and the GI50 (SF-268) was 49.1 µM (inactive). The GI50 (SK-MEL-28) was > 100 µM (inactive), the GI50 (SK-MEL-2) was > 100 µM (inactive) and the GI50 (SK-MEL-5) was 99.1 µM (inactive). The GI50 (SN12C) was > 100 µM (inactive), the GI50 (SNB-19) was 63.8 µM (inactive) and the GI50 (SNB-75) was 44.7 µM (inactive). For the same compound, the GI50 (SR) was 18.3 µM (inactive), the GI50 (SW-620) was > 100 µM (inactive) and the GI50 (T47D) was 16.2 µM (inactive). For the same compound, the GI50 (TK-10) was 22.8 µM (inactive), the GI50 (U-251) was 37.7 µM (inactive) and the GI50 (UACC-257) was > 100 µM (inactive). The GI50 (UACC-62) was > 100 µM (inactive) and the GI50 (UO-31) was 69.5 µM (inactive).
`CCN(CC)P(=O)(c1ccc2c(c1)OCCOCCOCCOCCO2)N(CC)CC` was tested, and the GI50 (786-0) was > 100 µM (inactive), the GI50 (A498) was > 100 µM (inactive) and the GI50 (A549) was > 100 µM (inactive). The GI50 (ACHN) was > 100 µM (inactive), the GI50 (BT-549) was > 100 µM (inactive) and the GI50 (CAKI-1) was > 100 µM (inactive). The GI50 (CCRF-CEM) was > 100 µM (inactive), the GI50 (COLO 205) was > 100 µM (inactive) and the GI50 (DU-145) was > 100 µM (inactive). For the same compound, the GI50 (EKVX) was > 100 µM (inactive), the GI50 (HCC 2998) was > 100 µM (inactive) and the GI50 (HCT-116) was > 100 µM (inactive). For the same compound, the GI50 (HCT-15) was over 100 µM, the GI50 (HL-60) was > 100 µM (inactive) and the GI50 (HOP-62) was > 100 µM (inactive). The GI50 (Hs-578T) was > 100 µM (inactive), the GI50 (IGROV-1) was > 100 µM (inactive) and the GI50 (K562) was > 100 µM (inactive). For the same compound, the GI50 (KM12) was > 100 µM (inactive), the GI50 (LOX IMVI) was > 100 µM (inactive) and the GI50 (M14) was > 100 µM (inactive). For the same compound, the GI50 (MCF7) was > 100 µM (inactive), the GI50 (MDA-MB-231) was > 100 µM (inactive) and the GI50 (MDA-MB-435) was > 100 µM (inactive). For the same compound, the GI50 (MDA-N) was > 100 µM (inactive), the GI50 (MOLT-4) was > 100 µM (inactive) and the GI50 (Malme-3M) was > 100 µM (inactive). The GI50 (NCI-H226) was > 100 µM (inactive), the GI50 (NCI-H23) was > 100 µM (inactive) and the GI50 (NCI-H460) was > 100 µM (inactive). For the same compound, the GI50 (NCI-H522) was > 100 µM (inactive), the GI50 (OVCAR-8) was > 100 µM (inactive) and the GI50 (PC-3) was > 100 µM (inactive). The GI50 (RPMI-8226) was > 100 µM (inactive), the GI50 (SF-268) was > 100 µM (inactive) and the GI50 (SF-295) was > 100 µM (inactive). The GI50 (SF-539) was > 100 µM (inactive), the GI50 (SK-MEL-28) was > 100 µM (inactive) and the GI50 (SK-MEL-5) was > 100 µM (inactive). For the same compound, the GI50 (SK-OV-3) was > 100 µM (inactive), the GI50 (SN12C) was > 100 µM (inactive) and the GI50 (SNB-19) was > 100 µM (inactive). For the same compound, the GI50 (SNB-75) was > 100 µM (inactive), the GI50 (SR) was > 100 µM (inactive) and the GI50 (SW-620) was > 100 µM (inactive). The GI50 (T47D) was > 100 µM (inactive), the GI50 (TK-10) was > 100 µM (inactive) and the GI50 (UACC-62) was > 100 µM (inactive). For the same compound, the GI50 (UO-31) was > 100 µM (inactive).
